Where “and” joins values, the source holds several entries; their conditions need not be identical. Equal values may be shown once. Where a name gives a salt, the structure may show the parent alone. Read-outs that look alike come from different tables or passages of the source. *1 amine or outer side, *2 acyl side, *3 side chain or, on linkers, in order; H or OH if unused. Where a SMILES comes first, the peptide text is derived from it. Bridges are numbered along the chain shown (N, C = ends). Roman numbers before positions name the chains, in order. [ ]: non-standard residue; d: D form. Actinocin(9to1) = Cc1c2oc3c(C)ccc(C(=O)[*:1])c3nc-2c(C(=O)[*:2])c(N)c1=O; NMeV = CN[C@H](C(=O)O)C(C)C; Sar = CNCC(=O)O
Tests used:
[1] = cited from earlier work
[2] = tested on: APPs secretion by NIH 3T3 cell lines; settings: 50 μM; for Density of APPs band: 20 h culture, n = 2, mean ± S.D.

## CO[C@@]12[C@H](COC(N)=O)C3=C(C(=O)C(C)=C(N)C3=O)N1C[C@@H]1N[C@@H]12 [Mitomycin]
[1]; human, in vivo, iv
  time required to reduce the serum concentration by 50%: 17 min
[1]; in vivo, iv
  clearance from serum (in words): rapidly cleared from the serum
[1]; in vivo
  excreted in urine: Approximately 10%

## CC(C(=O)O)c1cccc(Oc2ccccc2)c1 (stereo not drawn) [fenoprofen]
[2]; 20 h
  APPs secretion (in words): increased APPs secretion

## C[C@@H](C(=O)O)c1cccc(C(=O)c2ccccc2)c1 [R-Ketoprofen]
[2]
  Density of APPs band: 3.41 ± 0.39 and 2.74 ± 0.34

## CN1C(C(=O)Nc2ccccn2)=C(O)c2ccccc2S1(=O)=O [Proxicam]
[2]
  Density of APPs band: 3.29 ± 0.77

## C[C@H](C(=O)O)c1ccc(-c2ccccc2)c(F)c1 [S-Flubiprofen]
[2]
  Density of APPs band: 2.37 ± 0.66

## C[C@@H](C(=O)O)c1ccc(-c2ccccc2)c(F)c1 [R-Flubiprofen]
[2]
  Density of APPs band: 3.30 ± 0.81

## C[C@H](C(=O)O)c1cccc(C(=O)c2ccccc2)c1 [S-Ketoprofen]
[2]
  Density of APPs band: 2.99 ± 0.57 and 3.76 ± 1.26

## Cc1c2oc3c(C)ccc(C(=O)N[C@@H]4C(=O)N[C@H](C(C)C)C(=O)N5CCC[C@H]5C(=O)N(C)CC(=O)N(C)[C@@H](C(C)C)C(=O)O[C@@H]4C)c3nc-2c(C(=O)N[C@@H]2C(=O)N[C@H](C(C)C)C(=O)N3CCC[C@H]3C(=O)N(C)CC(=O)N(C)[C@@H](C(C)C)C(=O)O[C@@H]2C)c(N)c1=O [Actinomycin D] (I: T[dV]P[Sar][NMeV] / II: T[dV]P[Sar][NMeV]; ester I:1-I:C, II:1-II:C; linker I:N-II:N via Actinocin(9to1))
[1]; in vivo
  elimination half-life: about 36 hr
  excreted in urine: 10%
  excreted intact into the bile (in words): Half of the dose
  passage of blood-brain barrier: does not pass the blood-brain barrier

## CC(C(=O)O)c1ccc(-c2ccccc2)c(F)c1 (racemic) [RS-Flubiprofen]
[2]
  Density of APPs band: 3.07 ± 0.34

## O=C(O)CCCc1ccc(N(CCCl)CCCl)cc1 [Chlorambucil, 4-[bis(2-chlorethyl)amino]benzenebutanoic acid]
[1]; in vivo
  terminal half-life: 1.5 h

## N.N.[Cl][Pt][Cl] [Cisplatin]
[1]; oral
  absorption (in words): not absorbed orally

## COc1cccc2c1C(=O)c1c(O)c3c(c(O)c1C2=O)C[C@@](O)(C(C)=O)C[C@@H]3O[C@H]1C[C@H](N)[C@H](O)[C@H](C)O1 [Daunorubicin, 5,12-Naphthacenedione, (8S-cis)-8-acetyl-10-[(3-amino-2,3,6-trideoxy-α-L-lyxo-hexanopyranosyl)oxy]-7,8,9,10-tetrahydro-6,8, 11-trihydroxy-10-methoxy-, hydrochloride]
[1]; in vivo, po
  absorption (in words): Oral absorption is poor
[1]; in vivo
  secreted into the bile: ~40%

## COc1cccc2c1C(=O)c1c(O)c3c(c(O)c1C2=O)C[C@@](O)(C(C)O)C[C@@H]3O[C@H]1C[C@H](N)[C@H](O)[C@H](C)O1 (stereo partly drawn) [daunorubicinol]
[1]; in vivo
  elimination half-life: about 27 hr

## COc1cccc2c1C(=O)c1c(O)c3c(c(O)c1C2=O)C[C@@](O)(C(=O)CO)C[C@@H]3O[C@H]1C[C@H](N)[C@H](O)[C@H](C)O1 [Doxorubicin, 5,12-Naphthacenedione, (8s-cis)-10-[(3-amino-2,3,6-trideoxy-a-L-lyxo-hexopyranosyl)oxy]-7,8,9,10-tetrahydro-6,8,11 trihydroxy-8-(hydroxyacetyl)-1-methoxy-hydrochloride]
[1]; in vivo, po
  absorption (in words): absorbed poorly
[1]; in vivo
  elimination half-life: about 30 hr
  excreted in urine: a few percent

## CC[C@]1(O)C[C@H]2CN(CCc3c([nH]c4ccccc34)[C@@](C(=O)OC)(c3cc4c(cc3OC)N(C=O)[C@H]3[C@@](O)(C(=O)OC)[C@H](OC(C)=O)[C@]5(CC)C=CCN6CC[C@]43[C@@H]65)C2)C1 [Vincristine]
[1]; in vivo
  concentration in blood cells (in words): extensively concentrated in platelets and to a lesser extent in leukocytes and erythrocytes
[1]; oral
  absorption (in words): Unpredictable absorption
